This is an account of results in patent US8816129B2, “PTP1B inhibitors, synthesis thereof and application thereof in preparation of medicaments for treating type 2 diabetes mellitus” (Institute of Oceanology, Chinese Academy of Sciences, priority 2010, dated 2014).

Broadly, the inhibition is the drop in the measured response relative to a control, in per cent. Broadly, the IC50 is the midpoint of a concentration-inhibition curve.

Where two headings read alike, the source gives them in different places.

Assay [1] deals with T1, human recombinant PTP1B (hGST-PTP1B) (Homo sapiens, UniProt P18031).
T1 construct: made in house; host or cells: E. coli BL21
T1 sequence (P18031 1-435): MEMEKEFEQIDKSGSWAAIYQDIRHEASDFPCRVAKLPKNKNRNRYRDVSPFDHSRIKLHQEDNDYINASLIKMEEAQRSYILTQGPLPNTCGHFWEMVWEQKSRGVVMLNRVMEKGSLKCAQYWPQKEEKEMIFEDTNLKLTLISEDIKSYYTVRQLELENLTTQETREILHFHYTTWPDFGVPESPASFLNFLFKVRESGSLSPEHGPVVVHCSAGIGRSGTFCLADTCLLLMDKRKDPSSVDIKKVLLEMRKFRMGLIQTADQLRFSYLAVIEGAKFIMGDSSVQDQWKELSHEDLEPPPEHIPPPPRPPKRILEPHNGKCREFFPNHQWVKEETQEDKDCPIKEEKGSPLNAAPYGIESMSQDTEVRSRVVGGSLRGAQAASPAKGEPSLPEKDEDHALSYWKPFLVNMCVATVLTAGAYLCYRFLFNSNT
In words: PTP1B inhibitory assay (pNPP hydrolysis, absorbance at 405 nm). It is filed as biochemical. As to conditions: 2 mM pNPP, 30 nM hGST-PTP1B, pH 6.5, 30° C.; for inhibition at 5 µg/mL: 5 μg/mL compound; for inhibition at 20 µg/mL: 20 μg/mL compound. On the procedure: Construct human recombinant PTP1B engineering bacteria hGST-PTP1B-BL21 via molecular biology methods, and purify it through GST-tagged affinity chromatography. The principle is that the product pNP, which is enzymolysis of pNPP by PTP1B, absorbs at 405 nm. The activity of PTP1B inhibition can be measured by calculating the quantity of pNP.
Compounds 1-12 were dissolved in DMSO. 2 μL of samples were placed into the system (50 mM Tris-HCl, pH 6.5, 2 mM pNPP, 2% DMSO, 30 nM hGST-PTP1B). DMSO was distributed as negative control and Na3VO4 was positive control. The reaction was at 30° C. and monitored at 405 nm for 3 min. Inhibitory rate was calculated according to the following formula: % inhibition=100% ×[(Vsample−VDMSO)/[…]]

The target in assay [2] is T2, PTP1B (Homo sapiens, UniProt P18031).
T2 sequence (P18031 1-435): T1 sequence (P18031 1-435)
As to conditions: background statement; read-out: IC50 (PTP1B inhibitor); cited from earlier work.

Turning to `COc1cc(C(=O)c2c(C(Br)Br)cc(OC)c(OC)c2Br)c(Br)c(Br)c1OC` [Compound 1, (2′-bromo-6′-(dibromomethyl)-3′,4′-dimethoxyphenyl)-(2,3-dibromo-4,5-dimethoxyphenyl)-methanone], in assay [1], the inhibition at 5 µg/mL came out at 47.9% and the inhibition at 20 µg/mL was determined as 101%. Also, the IC50 in assay [1] (read-out: IC50 (converted)) is 1840 nM.

For the compound `CCCOCc1cc(O)c(O)c(Br)c1Cc1cc(O)c(O)c(Br)c1Br` [Compound 2, 3,4-dibromo-5-[2′-bromo-3′,4′-dihydroxy-6′-(propoxymethyl)-benzyl]-benzene-1,2-diol], in assay [1], the inhibition at 5 µg/mL was 55.7%, the inhibition at 20 µg/mL was 86.2% and the IC50 came to 1.08 µg/mL.

In the case of `CC(C)OCc1cc(O)c(O)c(Br)c1Cc1cc(O)c(O)c(Br)c1Br` [Compound 3, 3,4-dibromo-5-[2′-bromo-3′,4′-dihydroxy-6′-(isopropoxymethyl)-benzyl]-benzene-1,2-diol], in assay [1], the inhibition at 5 µg/mL turned out to be 68.2% and the inhibition at 20 µg/mL came to 93.9%. Further, in assay [1] (read-out: IC50 (converted)), the 50% inhibitory concentration (IC50) was 628 nM.

As to `CCCCOCc1cc(O)c(O)c(Br)c1Cc1cc(O)c(O)c(Br)c1Br` [Compound 4, 3,4-dibromo-5-[2′-bromo-6′-(butoxymethyl)-3′,4′-dihydroxy-benzyl]-benzene-1,2-diol], in assay [1], the inhibition at 5 µg/mL came out at 27.2% and the inhibition at 20 µg/mL was found to be 64.6%.

In the case of `CC(C)COCc1cc(O)c(O)c(Br)c1Cc1cc(O)c(O)c(Br)c1Br` [Compound 5, 3,4-dibromo-5-[2′-bromo-3′,4′-dihydroxy-6′-(isobutoxymethyl)-benzyl]-benzene-1,2-diol], in assay [1], the inhibition at 5 µg/mL amounted to 48.3%, the inhibition at 20 µg/mL worked out at 96.2% and the IC50 came to 0.83 µg/mL.

Turning to `CCC(C)OCc1cc(O)c(O)c(Br)c1Cc1cc(O)c(O)c(Br)c1Br` (centres unmarked) [Compound 6, 3,4-dibromo-5-(2-bromo-6-(sec-butoxymethyl)-3,4-dihydroxybenzyl)benzene-1,2-diol], in assay [1], the inhibition at 5 µg/mL came to 42.4% and the inhibition at 20 µg/mL was 96.5%. Further, the IC50 in assay [1] (read-out: IC50 (converted)) is 1820 nM.

On to `COc1cc(Br)c(Cc2cc(OC)c(OC)c(Br)c2Cc2cc(OC)c(OC)c(Br)c2Br)cc1OC` [Compound 7, 2,3-dibromo-1-[2′-bromo-6′-(2″-bromo-4″,5″-dimethoxybenzyl)-3′,4′-dimethoxybenzyl]-4,5-dimethoxybenzene], for which the inhibition at 20 µg/mL in assay [1] came out at 101%.

Regarding `CCCOCc1cc(O)c(O)c(Br)c1Cc1c(Br)c(O)c(O)c(Br)c1Br` [Compound 8, 3,4,6-tribromo-5-(2-bromo-3,4-dihydroxy-6-(propoxymethyl)benzyl)benzene-1,2-diol], in assay [1], the inhibition at 5 µg/mL worked out at 42.4% and the inhibition at 20 µg/mL worked out at 98.8%. Also, the 50% inhibitory concentration (IC50) in assay [1] (read-out: IC50 (converted)) is 1630 nM.

As to `CC(C)OCc1cc(O)c(O)c(Br)c1Cc1c(Br)c(O)c(O)c(Br)c1Br` [Compound 9, 3,4,6-tribromo-5-(2-bromo-3,4-dihydroxy-6-(isopropoxymethyl)benzyl)benzene-1,2-diol], the inhibition at 20 µg/mL in assay [1] came to 98.5%.

Consider `CCCCOCc1cc(O)c(O)c(Br)c1Cc1c(Br)c(O)c(O)c(Br)c1Br` [Compound 10, 3,4,6-tribromo-5-(2-bromo-6-(butoxymethyl)-3,4-dihydroxybenzyl)benzene-1,2-diol], for which the inhibition at 20 µg/mL in assay [1] turned out to be 99%.

For `CC(C)COCc1cc(O)c(O)c(Br)c1Cc1c(Br)c(O)c(O)c(Br)c1Br` [Compound 11, 3,4,6-tribromo-5-(2-bromo-3,4-dihydroxy-6-(isobutoxymethyl)benzyl)benzene-1,2-diol], the inhibition at 20 µg/mL in assay [1] was found to be 101%.

Turning to `Cc1cc(O)c(O)c(Br)c1Cc1c(Br)c(O)c(O)c(Br)c1Br` [Compound 12, 3,4,6-tribromo-5-(2-bromo-3,4-dihydroxy-6-methylbenzyl)benzene-1,2-diol], the inhibition at 20 µg/mL in assay [1] was determined as 57.7%.

For the compound `CCc1oc2ccccc2c1C(=O)c1cc(Br)c(O)c(Br)c1` [benzbromarone], in assay [2], the half-maximal inhibitory concentration (IC50) was 26 µM.
